Structures are written as SMILES. Read-outs that look alike come from different tables or passages of the source.

From patent US20220017516A1, “LOX INHIBITORS” (THE INSTITUTE OF CANCER RESEARCH: ROYAL CANCER HOSPITAL, priority 2018, published 2022) come the findings set out here.

Experiment [1] concerns the target T1, LOXL2 (Homo sapiens, UniProt Q9Y4K0).
T1 construct: purchased R&D Systems/Bio-techne
T1 sequence (Q9Y4K0 26-774): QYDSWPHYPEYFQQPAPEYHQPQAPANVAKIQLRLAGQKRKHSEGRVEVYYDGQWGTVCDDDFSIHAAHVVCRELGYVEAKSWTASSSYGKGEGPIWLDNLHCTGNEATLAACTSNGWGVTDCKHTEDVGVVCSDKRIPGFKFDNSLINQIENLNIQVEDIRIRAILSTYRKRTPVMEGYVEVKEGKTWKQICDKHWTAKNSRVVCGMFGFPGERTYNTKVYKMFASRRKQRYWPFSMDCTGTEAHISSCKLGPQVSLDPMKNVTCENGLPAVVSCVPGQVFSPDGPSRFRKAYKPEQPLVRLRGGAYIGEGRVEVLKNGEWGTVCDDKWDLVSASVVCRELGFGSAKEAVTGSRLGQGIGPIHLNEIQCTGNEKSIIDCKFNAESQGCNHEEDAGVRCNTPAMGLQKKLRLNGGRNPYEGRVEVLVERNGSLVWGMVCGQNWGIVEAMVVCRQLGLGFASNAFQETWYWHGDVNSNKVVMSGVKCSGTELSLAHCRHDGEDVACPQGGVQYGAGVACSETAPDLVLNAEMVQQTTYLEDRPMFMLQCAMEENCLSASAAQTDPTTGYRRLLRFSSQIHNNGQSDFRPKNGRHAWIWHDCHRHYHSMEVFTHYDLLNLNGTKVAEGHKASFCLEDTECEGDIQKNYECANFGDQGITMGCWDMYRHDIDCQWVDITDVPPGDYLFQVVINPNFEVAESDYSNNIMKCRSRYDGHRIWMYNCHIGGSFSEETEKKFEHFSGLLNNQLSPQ
Kind of experiment: LOX isoform activity assay (ROS Glo), LOXL2. Type of experiment: biochemical. The essentials: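 Human LOXL2 in 100 mM CHES pH 9 (1 M urea, 100 mM NaCl, 1 mM MgCl2, 0.5% BSA, 0.05% pluronic F-127) preincubated with compound (0.003–100 μM final) for 20 min, 1 h or 20 h. Cadaverine 19.56 mM and H2O2 25 μM added, 1 h at RT. Luminescence (ROS-Glo luciferin detection) fitted to IC50.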

Experiment [2] deals with T2, monoamine oxidase B (MAO-B) (Homo sapiens, UniProt P27338).
T2 construct: purchased Sigma M7441
T2 sequence (P27338 1-520): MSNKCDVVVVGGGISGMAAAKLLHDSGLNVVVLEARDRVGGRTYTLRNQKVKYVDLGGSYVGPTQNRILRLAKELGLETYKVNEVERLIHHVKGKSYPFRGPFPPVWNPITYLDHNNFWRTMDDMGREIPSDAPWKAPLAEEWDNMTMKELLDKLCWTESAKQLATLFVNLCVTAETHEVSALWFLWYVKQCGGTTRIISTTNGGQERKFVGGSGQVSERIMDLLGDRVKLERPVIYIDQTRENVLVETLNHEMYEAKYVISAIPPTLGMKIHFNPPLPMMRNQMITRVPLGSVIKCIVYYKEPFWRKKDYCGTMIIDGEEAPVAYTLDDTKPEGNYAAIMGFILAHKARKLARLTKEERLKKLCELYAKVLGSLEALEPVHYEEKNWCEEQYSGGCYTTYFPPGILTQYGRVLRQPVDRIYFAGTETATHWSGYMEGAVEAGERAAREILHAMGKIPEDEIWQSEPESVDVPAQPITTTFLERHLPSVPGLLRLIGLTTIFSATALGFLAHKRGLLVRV
The experiment in a line: Amine oxidase activity assay (MAO-Glo), MAO-B. Format: biochemical. The procedure: The Promega MAO-Glo assay kit (V1402) was used to assess monoamine oxidase A (MAO-A) and monoamine oxidase B (MAO-B) activity. MAO substrate was prepared at 80 μM with the specific MAO-A/B reaction buffer. Overall, 0.5 μl test compound was added to 25 μl MAO substrate at 100, 30, 10, 3, 1, 0.3, 0.1, 0.03, 0.01 and 0.003 μM (final concentration) in a 96-well white, flat bottom plate. Overall, 25 μl of 1:520 dilution of MAO-A enzyme (Promega, V1452) or 25 μl of 1:52 dilution of MAO-B enzyme (Sigma, M7441) in specific MAO-A/B reaction buffer was added to each well (enzyme prepared at 2×final concentration) and plates were incubated for 1 h at room temperature. Finally, 50 μl per well luciferin detection reagent was added and plates were incubated for 20 min at room temperature, protected from light. Luminescence was measured with an integration time of 500 ms per well using a SpectaMax M5 plate reader and resulting IC50 values were calculated using GraphPad Prism software.
In another setting, the DAO and MAO assays were performed in 384-well plates (Greiner) and test compound was added using a Labcyte Echo™ Acoustic Handler for the same final concentrations as in the 96-well setting. Luminescence was measured with BMG LABTECH PHERAstar FS plate reader.

The mark [3] stands for this setting: 20 hr incubation with enzyme; read-out: LOXL2 IC50 c) 20 hr.
Where [4] appears, read: 1 hr incubation with enzyme; read-out: LOXL2 IC50 b) 1 hr.

Usually IC50 stands for the point on the concentration scale where inhibition reaches its midpoint. As to `CCOc1ccc(N2C[C@H]3CN(C(=O)CS(=O)(=O)CCN)C[C@@H]2C(C)(C)C3)cc1` [Example 7, 2-((2-aminoethyl)sulfonyl)-1-((1S,5S)-6-(4-ethoxyphenyl)-9,9-dimethyl-3,6-diazabicyclo[3.2.2]nonan-3-yl)ethan-1-one], the concentration for half-maximal inhibition (IC50) in experiment [1] (setting [3]) is 0.27 µM; in experiment [2], over 100 µM.

Take `CCOc1ccc(N2C[C@H]3CN(CCS(=O)(=O)CCN)C[C@@H]2C(C)(C)C3)cc1` [Example 1, 2-((2-((1R,5S)-6-(4-ethoxyphenyl)-9,9-dimethyl-3,6-diazabicyclo[3.2.2]nonan-3-yl)ethyl)sulfonyl)ethan-1-amine]: the concentration for half-maximal inhibition (IC50) was 1.6 µM in experiment [1] (setting [3]) and over 100 µM in experiment [2].

For the compound `NCCS(=O)(=O)CC(=O)N1CCN(c2ncccn2)CC1` [Example 12, 2-((2-Aminoethyl)-sulfonyl)-1-(4-(pyrimidin-2-yl)-piperazin-1-yl)ethan-1-one], the half-maximal inhibitory concentration (IC50) in experiment [1] (setting [4]) was 0.43 µM; in experiment [2], over 100 µM.

With `CCOC(=O)CCC(C(=O)N1C[C@@H]2C[C@H]1CN2c1ccc(OCC)cc1)S(=O)(=O)CCN` (stereo partly drawn) [Example 41, ethyl 4-((2-aminoethyl)sulfonyl)-5-((1S,4S)-5-(4-ethoxyphenyl)-2,5-diazabicyclo[2.2.1]heptan-2-yl)-5-oxopentanoate], the half-maximal inhibitory concentration (IC50) in experiment [1] (setting [4]) is 3.1 µM; in experiment [2], over 100 µM.

On to `CCOc1ccc(N2C[C@H]3CN(c4ccc(S(=O)(=O)CCN)cc4)C[C@@H]2C(C)(C)C3)cc1` [Example 33, 2-((4-((1R,5S)-6-(4-ethoxyphenyl)-9,9-dimethyl-3,6-diazabicyclo [3.2.2]nonan-3-yl)phenyl)sulfonyl)ethan-1-amine], for which the 50% inhibitory concentration (IC50) in experiment [1] (setting [3]) is 16 µM; in experiment [2], over 100 µM.

For `CCOc1ccc(N2CC3CN(CCS(=O)(=O)CCN)CC3C2)cc1` (centres unmarked) [Example 4, 2-((2-(5-(4-ethoxyphenyl)hexahydropyrolo [3,4-c]pyrrol-2(1H)-yl)ethyl)sulfonyl)ethan-1-amine], the IC50 was 7.3 µM in experiment [1] (20 min incubation with enzyme; read-out: LOXL2 IC50 a) 20 min) and over 100 µM in experiment [2].

In the case of `CCOc1ccc(N2C[C@H]3CN(C(=O)NCCS(=O)(=O)CCN)C[C@@H]2C(C)(C)C3)cc1` [Example 38, (1S,5S)—N-(2-((2-aminoethyl)sulfonyl)ethyl)-6-(4-ethoxyphenyl)-9,9-dimethyl-3,6-diazabicyclo[3.2.2]nonane-3-carboxamide], in experiment [1] (setting [4]), the IC50 is 0.58 µM.

Consider `CCOc1ccc(N2C[C@@H]3C[C@H]2CN3C(=O)CS(=O)(=O)CCN)cc1` [Example 8, 2-((2-aminoethyl)-sulfonyl)-1-((1S,4S)-5-(4-ethoxyphenyl)-2,5-diazabicyclo-[2.2.1]heptan-2-yl)-ethan-1-one], for which the IC50 in experiment [1] (setting [3]) was 0.15 µM; in experiment [2], over 100 µM.

For `NCCS(=O)(=O)CC(=O)N1CCN(c2ccccc2)CC1` [Example 13, 2-((2-Aminoethyl)-sulfonyl)-1-(4-phenylpiperazin-1-yl)ethan-1-one], the values for the IC50 in experiment [1] (setting [4]) and in experiment [2] were 0.4 µM and over 100 µM, respectively.

With `CCOc1ccc(N2C[C@@H]3C[C@H]2CN3CCS(=O)(=O)CCN)cc1` [Example 2, 2-((2-((1S,4S)-5-(4-ethoxyphenyl)-2,5-diazabicyclo[2.2.1]heptan-2-yl)ethyl)sulfonyl)-ethan-1-amine], the IC50 in experiment [1] (setting [3]) is 0.4 µM; in experiment [2] it was over 100 µM.

Turning to `Cc1ccc(S(=O)(=O)N2C[C@H]3CN(C(=O)CS(=O)(=O)CCN)C[C@H]3C2)cc1` [Example 11, 2-((2-aminoethyl)-sulfonyl)-1-(cis-5-tosylhexahydro-pyrrolo[3,4-c]pyrrol-2(1H)-yl)ethan-1-one], the results for the IC50 in experiment [1] (setting [4]) and in experiment [2] were 0.17 µM and over 100 µM, respectively.

As to `CCOc1ccc(N2C[C@@H]3C[C@H]2CN3C(=O)C2(S(=O)(=O)CCN)CC2)cc1` [Example 42, (1-((2-Aminoethyl)sulfonyl)cyclopropyl)((1S,4S)-5-(4-ethoxyphenyl)-2,5-diazabicyclo[2.2.1]heptan-2-yl)methanone], the 50% inhibitory concentration (IC50) in experiment [1] (setting [4]) is 11 µM; in experiment [2], over 100 µM.
